This passage reports melting point results from a melting point compilation (Tetko et al.; mined from patent text by program, amines drawn as free bases though some values may be those of a salt).

As a reminder, the melting point is the temperature of the solid-liquid transition.

Each structure is given as a SMILES string.

Regarding `NC(=NCC(F)(F)F)Nc1ccnc(CCCCc2c[nH]cn2)n1`, the melting point was 191 to 193 °C. The figure for `CC(C)Nc1ccc(C2=NNC(=O)Cc3cc4c(cc32)OCO4)cc1` is 144 to 146 °C; for `CCCC(=O)c1cnc(C(CC2CCCC2)c2ccc(S(C)(=O)=O)cc2)[nH]1` (stereo unspecified) it is 159 to 163 °C; for `C=CCSC(Cc1ccc(Cl)cc1Cl)n1ccnc1` (stereo unspecified) it is 97 to 102 °C. The figure for `OCc1cnc(-c2ccc(OC(F)(F)F)cc2)nc1` is 84 to 85 °C; for `CCOP(=O)(OCC)c1cc2cc(N)c(Cl)cc2[nH]c1=O` it is 255 to 260 °C. With `CN(C)C=NS(=O)(=O)c1cc2cnc(CO)cc2o1`, the melting point fell in the range of 161 to 163 °C. With `COc1cccc2c1C(=O)c1c(OC)cc(C(=O)N(C)O)cc1C2=O` the figure was 182 °C; with `COC(=O)c1ccc(N)cc1O`, 118 to 120 °C. The figure for `CC1Cc2c(N3C(=O)c4ccccc4C3=O)ccc(Cl)c2O1` (stereo unspecified) is 197 to 198 °C. `CN1C(=O)CN=C(c2ccccc2F)c2cc(NC(=O)N3CCCC3)ccc21` displayed a melting point of 159 to 160 °C. With `Cc1ccc(-c2ccc(C(=O)Nc3ccc4cc(CN5CCCC5)cnc4c3C)cn2)cc1` the figure was 178 to 180 °C; with `CCOC(=O)C1=C(C)Nc2nc(N(C)C)nc(N(C)C)c2C1c1cccc([N+](=O)[O-])c1` (stereo unspecified), 149 °C; with `CCOc1cccc(-c2nc3n(n2)CCc2ccccc2-3)c1`, 102 to 103 °C. For `O=C(Nc1nnn[nH]1)c1oc2ccc(Cl)cc2c1OCC1CC1`, the melting point lay in the range of 243 to 244 °C.

Molecule `COc1cccc2c(=O)c3c(O)cc(OCC(O)CCl)cc3oc12` (stereo unspecified) gave a melting point of 184 °C. The figure for `Cn1nccc1-c1ccc2c(ccn2-c2ccc(F)cc2)c1` is 135 to 137 °C; for `Cc1nc2c(OCc3c(Cl)ccc(N(C)C(=O)CN)c3Cl)cccn2c1Br` it is 175 to 178 °C; for `Cc1nc2c(N)nc3ccccc3c2n1CCOCCNC(=O)Nc1ccccc1` it is 193 to 195 °C. The figure for `Cc1cc(-n2cccn2)c2cccc(OCc3c(Cl)ccc(S(=O)(=O)N4CCOCC4)c3Cl)c2n1` is 178 °C. The figure for `CCCCCCCNC(=O)Nc1ccccc1C=Cc1cc(C(C)(C)C)c(O)c(C(C)(C)C)c1` is 162 to 164 °C. The molecule `COc1cc2c(cc1OC)N(c1ccc([N+](=O)[O-])cc1[N+](=O)[O-])CC2` came in with a melting point of 219 °C. With `COc1cc(NCCCCCCN2C(=O)c3ccccc3C2=O)c2ncccc2c1` the figure was 123 to 124 °C; with `COC(=O)c1c(OC)c(OC)c2oc(C)cc(=O)c2c1OC`, 125 °C. With `COC(=O)CNc1cc(F)cc(F)c1` the figure was 75 to 77 °C. The figure for `Cc1ccccc1C(=O)c1ccc(CC#N)n1C` is 90 to 92.5 °C.

As to `O=c1c(Cl)c(N2CCOCC2)oc2ccccc12`, the melting point lay in the range of 127 to 128 °C.

Take `O=C(O)c1cn(C2CC2)c2cc(N3CC4CC4C3)c(F)cc2c1=O` (stereo unspecified): the melting point is 290 °C.

The molecule `Cc1ccc(C(=O)NN2CCOCC2)c(Nc2ccc3cn[nH]c3c2)n1` gave a melting point of 265 to 268 °C. The molecule `CCOc1ccc2c(c1)n(C1CCCCC1)c(=O)n2Cc1ccc(NC(=O)N(CC)CC)cc1OC` yielded a melting point of 158 °C. The figure for `COC(Cc1ccc(OCCc2nc(-c3ccccc3)oc2C)c2ccsc12)C(=O)O` (stereo unspecified) is 129 to 131 °C; for `CCOC(=O)c1c(CS(=O)(=O)c2nc3ccccc3[nH]2)nc2cc(OC)c(OC)cc2c1-c1ccc(OC)c(OC)c1` it is 181 to 182 °C; for `O=[N+]([O-])c1ccc2c(Br)cc3nc(O)c(O)nc3c2c1` it is greater than 300 °C. With `CCOC(=O)c1cc2cccc(OCc3ccccc3)c2cc1O`, the melting point is 98 to 115 °C. `CN1CCN(C(=O)[C@H](CC(N)=O)Nc2ccc(OCc3ccccc3)cc2OCc2ccccc2)CC1`: the melting point lay in the range of 83 to 85 °C. In turn, `COc1cc2cc(C(=O)Nc3cc(OCc4ccccc4)c4ccccc4c3CCCl)[nH]c2c(OC)c1OC` showed a melting point of 180 to 184 °C. The figure for `O=S1(=O)c2cccc3cccc(c23)N1CCCN1CCC(c2ccccc2)(c2ccccc2)CC1` is 168 °C; for `CC(=O)O[C@@H](Cc1ccc(OCCN2CCC(C)(C)c3cc(C(=O)c4ccccc4)ccc32)cc1)C(=O)O` it is 60 to 62 °C. Molecule `O=C(O)CCC(=O)OCc1ccccc1[N+](=O)[O-]` came in with a melting point of 63 to 65 °C.

Molecule `COc1ccc(CNn2c(=O)ccc3ccc(Cl)nc32)cc1Cl` had a melting point of 151 to 154 °C. The figure for `Cc1sc2c(c1C)C(c1ccc(Cl)cc1)=NC(CC(=O)N1CCCCC1)c1nnc(C)n1-2` (stereo unspecified) is 260 to 262 °C. The molecule `Cc1ccc(S(=O)(=O)N2CCCC2c2cccnc2)cc1` (racemic) gave a melting point of 112 °C. With `CC(=O)Oc1cc2c(c3ccccc13)Nc1ccccc1O2` the figure was 152 to 155 °C.

Consider `Cc1ccc(CC(CNC(=S)NC(C)c2ccc(NS(C)(=O)=O)c(F)c2)COC(=O)C(C)(C)C)cc1C` (stereo unspecified), for which the melting point was determined as 73 °C. With `CCOP(=O)(CC(=O)N1CCc2ccccc21)OCC` the figure was 97 to 99 °C. With `COc1ccc(CCOC(c2ccccc2)(c2ccccc2)C(O)C(=O)O)cc1OC` (stereo unspecified) the figure was 133 to 135 °C. Take `CCn1nc(C#N)c(Nc2ccc(F)cc2[N+](=O)[O-])n1`: the melting point fell in the range of 115 to 116 °C. With `O=Cc1ccc(N2CCN(c3ccncc3)CC2)cc1` the figure was 116 to 118 °C; with `Cc1cccc(CC(=O)O)c1OCc1nc(OC(C)C)c(C(=O)NCc2ccc(Cl)cc2Cl)s1`, 125 to 126 °C; with `CC[C@@H](c1ccccc1)N(Cc1ccc(CN)cc1)S(=O)(=O)c1ccc(Cl)cc1`, 108 to 110 °C. For the molecule `Clc1nc(Cl)nc(-c2cccn2Cc2ccccc2)n1`, the melting point is 150 to 151 °C. The figure for `COc1cc(C)cc(S(=O)(=O)c2cccc(F)c2C#N)c1` is 160 to 162 °C; for `CCN(CC)CC1CCCCN1CCNC(=O)N1c2ccc(Br)cc2C(=O)Nc2cccnc21` (stereo unspecified) it is 117 to 119 °C; for `CCOC(=O)CN(C)C(=O)CC1=C(n2nc(-c3c(-c4ccccc4)nn4ccccc34)ccc2=O)CCCC1` it is 56 to 60 °C. The figure for `COc1ccc(-c2nc3cnncc3[nH]2)c(OC)c1` is 268 °C. The figure for `Cc1cc(C)c(/C=C/[C@H]2C[C@H](O)CC(=O)O2)c(-c2ccc(F)c(CO)c2)c1` (relative stereo) is 137 to 138 °C; for `CC(=O)N(c1ccc(F)c(Cl)c1)c1ncnc2cc(OCCCN3CCOCC3)c([N+](=O)[O-])cc12` it is 154 °C. For the molecule `Cc1cc(C)n(C(=O)CCNS(=O)(=O)c2ccc(Cl)cc2)n1`, the melting point is 101 °C. The figure for `Cc1nc2c(N)nc3ccccc3c2n1CCCCC(=O)N1CCOCC1` is 218 to 219 °C; for `CN1OC(C=Cc2ccccc2)CC1(Cn1ccnc1)c1ccc2ccccc2c1` (stereo unspecified) it is 166 to 169 °C; for `CNC(=O)[C@H](Cc1cncn1C)NC(=O)C(Cc1cccc2ccccc12)Cc1cccc2ccccc12` it is 250 to 252 °C. The figure for `CCN1C(=O)CCCc2cc(Nc3ncc(Cl)c(Nc4ccccc4S(=O)(=O)C(C)C)n3)c(OC)cc21` is 195 to 197 °C; for `O=c1[nH]c2ncc(-c3ccc(O)nc3)nc2n1CC1CCCCC1` it is greater than 400 °C; for `CSc1c(C2=C(c3cn(C)c4ccccc34)C(=O)NC2=O)c2ccccc2n1C` it is 281 to 283 °C.

`CC(C)NC(=O)OCC(=O)c1ccccc1F`: the melting point is 70 to 74 °C.

`COc1cc(OC)cc(N2CCN(C(=S)Nc3nc4ccccc4nc3OC)CC2)c1` displayed a melting point of 141 to 143 °C. With `CCOC(=O)CC(=O)C=Cc1cccc([N+](=O)[O-])c1` the figure was 92 to 93 °C; with `CN1Cc2c(C(=O)N3CCN(C(=O)c4ncn5c4CN(C)C(=O)c4cc(Cl)ccc4-5)CC3)ncn2-c2ccc(Cl)cc2C1=O`, 367 to 374 °C; with `O=C(Cn1c(-c2ccc(Br)cc2)nc2cccnc21)Nc1ccccc1`, 242 to 244 °C. The figure for `CNC(=S)n1nc(Cc2ccccc2)nc1N` is 173 to 175 °C. With `CC(=O)c1ccc(N(C)Cc2ccccc2)c(S(N)(=O)=O)c1` the figure was 159 to 161 °C; with `COc1cc2c(cc1F)C(=O)c1cc3ccccc3cc1C2=O`, greater than 250 °C; with `COC(=O)c1ccc(OCC2CC(=O)N(c3ccc(OCCn4ccnc4)cc3)C2)cc1` (stereo unspecified), 135 to 138 °C. As to `CCC(=O)NCCC1CCc2ccn3nc(C)cc3c21` (stereo unspecified), the melting point lay in the range of 100 to 102 °C.

As for `CC[C@H]1C(=O)C[C@@H]2C[C@H]1OO[C@@]2(/C=C/C(=O)c1ccc(Cl)cc1)CC`, the melting point was determined as 127 °C. With `CC(C)(C)C(=O)c1ccc(CC(Cc2ccc(C(=O)C(C)(C)C)cc2)C(=O)O)cc1` the figure was 107 to 109 °C.

As for `CCOC=Cc1c(OC)c(=O)[nH]c2cc(Cl)ccc2c1=O`, the melting point lay within 202 to 204 °C. In the case of `C=CC(=O)O[C@H]1CC[C@H](c2ccccc2)CC1`, the melting point amounted to 67.3 °C. Turning to `O=C(O)c1n[nH]c(C(=O)O)c1[N+](=O)[O-]`, the melting point was 325 to 327 °C. With `CC(C)=NNC(=O)NCCCN(C)CCCNC(=O)NN=C(C)C` the figure was 113 to 114 °C; with `O=C1c2cccc(Sc3ccccc3)c2C(=O)c2cccc(Nc3cccc([N+](=O)[O-])c3)c21`, 246 °C. `Cc1cc(C2OC(=O)NC2=O)c(C)o1` (stereo unspecified) gave a melting point of 144 to 145 °C.

`C=CC#CCn1c(-c2ccccc2)nc(C(F)(F)F)c(CC)c1=O`: the melting point is 104 to 106 °C.

Turning to `COc1cc2c(=O)c(C)cn3c4ccccc4c(c1)c23`, the melting point was 165 to 168 °C. With `COC(=O)C(C)NC(=O)NS(=O)(=O)C=Cc1ccccc1` (stereo unspecified) the figure was 138 to 140 °C. Molecule `Cc1c(Sc2ccccc2S(C)(=O)=O)c2cc(NS(C)(=O)=O)ccc2n1CC(=O)O` registered a melting point of 227 to 230 °C.
